What was measured:
[1] = biological target: Human TRPML1 (Homo sapiens, UniProt Q9GZU1, L15A/L16A/L577A/L578A); test: Fluorescent TRPML1 assay (Fluo4-AM, HEK-293 Trex cells expressing hTRPML1); type: cell-based; conditions: fluorescent calcium assay, doxycycline-induced hTRPML1
Procedure, shortened: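 Doxycycline-induced (0.5 μg/mL) HEK-293 Trex cells stably expressing surface-targeted mutant hTRPML1, loaded with 1 μM Fluo4-AM, then suspended in modified Ringer's with 10 mM calcium and added to compounds (20 μM to 6 nM final, half-log steps, triplicate). Fluorescence read at ex 480/em 540; percent activity versus plate controls, EC50 by non-linear regression.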

[2] = biological target: T1, Human TRPML2 (Homo sapiens, UniProt Q8IZK6); test: Fluorescent TRPML2 assay (as for TRPML1); type: cell-based; conditions: fluorescent calcium assay as for TRPML1, TRPML2 subtype
T1 construct: expressed in transfected cells
T1 sequence (Q8IZK6 1-566): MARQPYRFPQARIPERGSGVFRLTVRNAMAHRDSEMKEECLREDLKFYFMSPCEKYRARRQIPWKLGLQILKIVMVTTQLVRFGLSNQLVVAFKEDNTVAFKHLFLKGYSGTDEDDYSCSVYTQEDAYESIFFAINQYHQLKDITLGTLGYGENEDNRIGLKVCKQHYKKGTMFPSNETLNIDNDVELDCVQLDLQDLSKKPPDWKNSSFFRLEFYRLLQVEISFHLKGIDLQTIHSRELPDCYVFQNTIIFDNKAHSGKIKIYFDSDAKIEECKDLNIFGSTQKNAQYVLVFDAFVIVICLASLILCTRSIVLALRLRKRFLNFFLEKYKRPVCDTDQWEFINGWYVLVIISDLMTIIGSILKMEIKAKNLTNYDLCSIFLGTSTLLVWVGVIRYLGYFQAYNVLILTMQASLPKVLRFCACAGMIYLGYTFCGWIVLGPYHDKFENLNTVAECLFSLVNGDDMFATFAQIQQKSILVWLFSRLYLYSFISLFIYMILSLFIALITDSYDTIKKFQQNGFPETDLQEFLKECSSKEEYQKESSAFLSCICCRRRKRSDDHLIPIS
Method: HEK-293 Trex cells were stably transfected with a construct consisting of the human coding sequence for TRPML1 cloned into the tet-inducible plasmid pCDNA5 T/O. Mutations were introduced into the TRPML1 sequence to facilitate expression on the cell surface (Silvia Vergarajauregui, Rosa Puertollano Traffic. 2006 March; 7(3): 337-353). Briefly, the cells are cultured in 150 mm round tissue culture dishes containing 20 mL of media. The day before the assay the cells are rinsed with DPBS-Ca-Mg and then treated briefly with Trypsin-EDTA. The Trypsin-EDTA is diluted with growth media, and cells are counted. 38×10^6 cells are re-plated into 150 mm round tissue culture dishes in media containing 0.5 μg/mL doxycycline to induce expression of hTRPML1.
The day of the experiment cells are lifted from the plates as above and collected by centrifugation. The cells are then suspended in dye loading buffer consisting of Ringer's solution supplemented with 0.1% Pluronic Acid and 1 micromolar Fluo4-AM dye. Cells are loaded for ~60 minutes in the dark with occasional mixing. The cells are collected by centrifugation, the loading media aspirated, and the cells resuspended in 25 mL Ringer's solution and incubated ~60 minutes in the dark. The cells are again collected by centrifugation, rinsed in Ringer's Solution and resuspended to 0.2×10^6 cells/mL in modified Ringer's solution containing 10 mM calcium.
Compounds are dissolved to a concentration of 10 millimolar with DMSO. Compound plates are created by dispensing compounds into 384 well black wall clear bottom plates (Greiner 781091). Positive and negative controls are included on each plate. Typically, different amounts of each compound are tested ranging from 100 nanoMoles (20 micromolar final concentration) decreasing in half-log steps to 31 picoMoles (6 nanomolar final concentration). Each concentration is typically tested in triplicate.
50 microliters of dye-loaded cells are dispensed into each well of the compound assay plate created above. The fluorescence in each well is then determined with an excitation wavelength of 480 nm and an emission wavelength of 540 nm using either a Molecular Devices SpectraMax multimode plate reader or a Hamamatsu FDSS/uCell plate imager.
The resulting fluorescence for each well is exported as an ascii file and loaded into our LIMS for analysis. The percent activity of each compound at each concentration is determined by comparison to the positive and negative control wells included in each plate.
Assays for TRPML2 and TRPML3 were performed as above for TRPML1, by substituting the appropriate TRPML2 or TRPML3 subtype for the TRPML1.
EC50 values were calculated using a non-linear regression of Prism. In the table, “A” indicates an EC50 of less than 100 nM, “B” indicates an EC50 range from 100 nM to 500 nM: “C” indicates an EC50 range from 500 nM to 2 μM; and “D” indicates an EC50 greater than 2 μM.

[3] = biological target: T2, Human TRPML3 (Homo sapiens, UniProt Q8TDD5); test: Fluorescent TRPML3 assay (as for TRPML1); type: cell-based; conditions: fluorescent calcium assay as for TRPML1, TRPML3 subtype
T2 construct: expressed in transfected cells
T2 sequence (Q8TDD5 1-553): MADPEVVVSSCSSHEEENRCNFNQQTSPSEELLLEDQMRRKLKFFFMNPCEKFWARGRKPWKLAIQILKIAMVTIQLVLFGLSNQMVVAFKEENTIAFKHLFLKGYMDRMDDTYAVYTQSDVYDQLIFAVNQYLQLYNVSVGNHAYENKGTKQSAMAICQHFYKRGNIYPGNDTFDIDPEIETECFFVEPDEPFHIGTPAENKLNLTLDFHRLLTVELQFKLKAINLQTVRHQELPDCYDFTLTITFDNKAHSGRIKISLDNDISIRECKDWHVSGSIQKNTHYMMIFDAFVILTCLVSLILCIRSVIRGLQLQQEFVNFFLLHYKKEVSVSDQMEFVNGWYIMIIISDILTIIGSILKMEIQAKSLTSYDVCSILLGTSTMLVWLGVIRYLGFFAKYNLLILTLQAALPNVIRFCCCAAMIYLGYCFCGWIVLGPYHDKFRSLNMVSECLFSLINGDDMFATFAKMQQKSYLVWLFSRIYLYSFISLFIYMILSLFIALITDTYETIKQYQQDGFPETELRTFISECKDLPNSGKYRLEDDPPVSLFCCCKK
Procedure, shortened: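 Tet-inducible HEK-293 Trex cells expressing human TRPML2 or TRPML3, induced overnight with 0.5 μg/mL doxycycline, loaded with 1 μM Fluo4-AM and suspended in Ringer's solution with 10 mM calcium. Compounds tested in triplicate from 20 μM to 6 nM final in half-log steps; fluorescence at 480/540 nm. EC50 by non-linear regression, binned A–D.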

[4] = system: TRPMLs; conditions: high concentrations needed; background statement; cited from earlier work

Human TRPML1, sequence (Q9GZU1 whole entry L15A/L16A/L577A/L578A): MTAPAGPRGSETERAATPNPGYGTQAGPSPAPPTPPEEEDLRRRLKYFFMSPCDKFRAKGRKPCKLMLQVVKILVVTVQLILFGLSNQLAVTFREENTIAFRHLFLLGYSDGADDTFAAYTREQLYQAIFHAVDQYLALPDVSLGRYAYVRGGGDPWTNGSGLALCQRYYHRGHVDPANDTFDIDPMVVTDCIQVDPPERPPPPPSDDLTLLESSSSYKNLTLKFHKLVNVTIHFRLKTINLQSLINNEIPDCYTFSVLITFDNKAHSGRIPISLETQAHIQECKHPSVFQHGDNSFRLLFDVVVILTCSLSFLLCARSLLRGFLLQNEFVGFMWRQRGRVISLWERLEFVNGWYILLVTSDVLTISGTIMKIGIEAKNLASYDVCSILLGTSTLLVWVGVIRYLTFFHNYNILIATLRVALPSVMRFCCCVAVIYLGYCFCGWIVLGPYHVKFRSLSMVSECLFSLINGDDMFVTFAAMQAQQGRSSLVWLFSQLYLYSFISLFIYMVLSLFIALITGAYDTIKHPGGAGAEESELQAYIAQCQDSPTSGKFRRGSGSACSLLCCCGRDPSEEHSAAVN

Row | SMILES | EC50 [1] | EC50 [2] | EC50 [3] | concentration needed to effectively activate TRPMLs [4]
1 | CCOC(C)(C)C(=O)N1C[C@H](C)N(c2ncnc3c2c(-c2ccccc2)cn3-c2cc(C#N)ccn2)C[C@H]1C [Compound 170, 2-(4-((2S,5R)-4-(2-ethoxy-2-methylpropanoyl)-2,5-dimethylpiperazin-1-yl)-5-phenyl-7H-pyrrolo[2,3-d]pyrimidin-7-yl)isonicotinonitrile] | < 100 nM | 100 to 500 nM | < 100 nM | –
2 | CC1CC(C)(C)N(C(=O)CN2C(=O)c3ccccc3C2=O)c2ccccc21 (stereo not shown) [ML-SA1, Mucolipin Synthetic Agonist I] | – | – | – | ~ 10 μM

Now from value to compound, other results behind:

Row | EC50 [1] | EC50 [2] | EC50 [3] | SMILES | concentration needed to effectively activate TRPMLs [4]
3 | 100 to 500 nM | > 2000 nM | 500 to 2000 nM | CCOC(C)(C)C(=O)N1C[C@H](C)N(c2ncnc3c2c(-c2ccncc2)cn3-c2cc(C#N)ccn2)C[C@H]1C [Compound 171, -(4-((2S,5R)-4-(2-ethoxy-2-methylpropanoyl)-2,5-dimethylpiperazin-1-yl)-5-(pyridin-4-yl)-7H-pyrrolo[2,3-d]pyrimidin-7-yl)isonicotinonitrile] | –
4 | < 100 nM | 500 to 2000 nM | 500 to 2000 nM | CCOC(C)(C)C(=O)N1C[C@H](C)N(c2ncnc3c2c(C2CC2)cn3-c2cc(C#N)ccn2)C[C@H]1C [Compound 172, 2-(5-cyclopropyl-4-((2S,5R)-4-(2-ethoxy-2-methylpropanoyl)-2,5-dimethylpiperazin-1-yl)-7H-pyrrolo[2,3-d]pyrimidin-7-yl)isonicotinonitrile] | –
5 | < 100 nM | 500 to 2000 nM | 100 to 500 nM | CCOC(C)(C)C(=O)N1C[C@H](C)N(c2ncnc3c2c(N2CCC2)cn3-c2cc(C#N)ccn2)C[C@H]1C [Compound 173] | –

Source: patent US20260285866A1, “MODULATORS OF TRPML, THEIR COMPOSITIONS AND METHODS OF USE” (Caraway Therapeutics, Inc., priority 2024, published 2026)
